Experimental data as given in ChEMBL document CHEMBL1201862, “PubChem BioAssay data set” (2004).
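Following 48 hours of exposure in 96-well plates, responses at five concentrations were used to interpolate endpoints linearly. The concentration for 50% growth inhibition is given as GI50.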 Active and inactive are the calls of the source. Rule as the data show it: active = GI50 up to about 1.1 µM and inactive = higher.

Columns and labels:
Experiment in all cases: DTP human tumour cell line panel, 48 h
ACHN = system: ACHN
CCRF-CEM = system: CCRF-CEM
COLO 205 = system: COLO 205
EKVX = system: EKVX
HCC 2998 = system: HCC 2998
HOP-92 = system: HOP-92
K562 = system: K562
MDA-MB-231 = system: MDA-MB-231
MDA-MB-435 = system: MDA-MB-435
NCI-H226 = system: NCI-H226
NCI-H460 = system: NCI-H460
NCI-H522 = system: NCI-H522
OVCAR-3 = system: OVCAR-3
PC-3 = system: PC-3
RPMI-8226 = system: RPMI-8226
RXF 393 = system: RXF 393
SK-MEL-28 = system: SK-MEL-28
T47D = system: T47D
U-251 = system: U-251

Structure (SMILES)	GI50 (ACHN)	GI50 (CCRF-CEM)	GI50 (COLO 205)	GI50 (EKVX)	GI50 (HCC 2998)	GI50 (HOP-92)	GI50 (K562)	GI50 (MDA-MB-231)	GI50 (MDA-MB-435)	GI50 (NCI-H226)	GI50 (NCI-H460)	GI50 (NCI-H522)	GI50 (OVCAR-3)	GI50 (PC-3)	GI50 (RPMI-8226)	GI50 (RXF 393)	GI50 (SK-MEL-28)	GI50 (T47D)	GI50 (U-251)
N#CCCN(CCCN(C(=O)Nc1ccccc1)c1ccccc1)C(=O)Nc1ccccc1	> 100 µM (inactive)	33.7 µM (inactive)	> 100 µM (inactive)	> 100 µM (inactive)	> 100 µM (inactive)	71.1 µM (inactive)	54.3 µM (inactive)	> 100 µM (inactive)	> 100 µM (inactive)	> 100 µM (inactive)	77.4 µM (inactive)	> 100 µM (inactive)	> 100 µM (inactive)	73.3 µM (inactive)	53 µM (inactive)	46.5 µM (inactive)	> 100 µM (inactive)	> 100 µM (inactive)	> 100 µM (inactive)
C[C@@H](c1ccccc1)N1CO[C@@]2(C#Cc3ccc4c(c3)OCO4)CCC[C@@H]12	> 100 µM (inactive)	19.8 µM (inactive)	15.8 µM (inactive)	20.3 µM (inactive)	17.9 µM (inactive)	5.3 µM (inactive)	13.8 µM (inactive)	13.3 µM (inactive)	13.7 µM (inactive)	20.6 µM (inactive)	13.3 µM (inactive)			12.4 µM (inactive)	11.2 µM (inactive)	11.6 µM (inactive)	17.5 µM (inactive)	16.4 µM (inactive)	13.6 µM (inactive)
CCCCC(C#N)(OP1(=O)OC(c2ccccc2)C(C)N1C)c1ccccc1 (stereo unspecified)	19 µM (inactive)	20.3 µM (inactive)	17.8 µM (inactive)	22.5 µM (inactive)	15.1 µM (inactive)	12.4 µM (inactive)	19 µM (inactive)	15.7 µM (inactive)	17.7 µM (inactive)		16.1 µM (inactive)	17.2 µM (inactive)	16.6 µM (inactive)	17 µM (inactive)	20.8 µM (inactive)	16.6 µM (inactive)	16.3 µM (inactive)	21.3 µM (inactive)	17.3 µM (inactive)
COc1cc(C2SCC(=O)N2c2ccc(NC(=O)c3ccc(N4C(=O)CSC4c4cc(OC)c(OC)c(OC)c4)cc3)cc2)cc(OC)c1OC (stereo unspecified)	63.7 µM (inactive)	45.5 µM (inactive)	> 100 µM (inactive)	57 µM (inactive)	> 100 µM (inactive)	16.4 µM (inactive)	37.9 µM (inactive)	> 100 µM (inactive)	20.6 µM (inactive)		> 100 µM (inactive)	40.2 µM (inactive)	37.1 µM (inactive)	58.3 µM (inactive)	28.9 µM (inactive)	58.6 µM (inactive)	42.5 µM (inactive)	19.8 µM (inactive)	49.3 µM (inactive)
O=C(OCc1ccccc1CN1CCOCC1)c1ccc(Br)cc1	> 100 µM (inactive)		74.6 µM (inactive)	55.1 µM (inactive)	46.5 µM (inactive)	93.1 µM (inactive)	0.0209 µM (active)	71.4 µM (inactive)	31 µM (inactive)	> 100 µM (inactive)	> 100 µM (inactive)	28.7 µM (inactive)	31.8 µM (inactive)	85.5 µM (inactive)	22.1 µM (inactive)	> 100 µM (inactive)	92 µM (inactive)	43.5 µM (inactive)	88.7 µM (inactive)
O=S(=O)(N=S(c1ccc(Cl)cc1)c1ccc(Cl)cc1)c1ccccc1	> 100 µM (inactive)	59.4 µM (inactive)	> 100 µM (inactive)	> 100 µM (inactive)	> 100 µM (inactive)	> 100 µM (inactive)	46.8 µM (inactive)	> 100 µM (inactive)	37.9 µM (inactive)	> 100 µM (inactive)	88.7 µM (inactive)	70.3 µM (inactive)		43.6 µM (inactive)	40.4 µM (inactive)	65.3 µM (inactive)	> 100 µM (inactive)	47.5 µM (inactive)	> 100 µM (inactive)
CC(C)(C)NC(=O)[C@H]1CC[C@H]2[C@@H]3CC=C4NC(=O)CC[C@]4(C)[C@H]3CC[C@]12C	> 100 µM (inactive)	> 100 µM (inactive)	> 100 µM (inactive)	> 100 µM (inactive)	> 100 µM (inactive)	97.9 µM (inactive)	> 100 µM (inactive)	29.3 µM (inactive)	> 100 µM (inactive)	> 100 µM (inactive)	> 100 µM (inactive)	36.4 µM (inactive)	> 100 µM (inactive)	> 100 µM (inactive)	> 100 µM (inactive)	> 100 µM (inactive)	> 100 µM (inactive)	> 100 µM (inactive)	> 100 µM (inactive)
CC[C@H]1C=CCC[C@@]2(C[C@@H]3CC[C@@H]4[C@H](C(=O)OCCCCCCCCCCCCCCCC(=O)N(CCCNC(C)=O)C[C@H](CCNC(C)=O)OC(C)=O)[C@]5(CCC[C@@H](C)O5)NC(=[N+]34)N2)O1	0.382 µM (active)	0.00184 µM (active)	0.0395 µM (active)	0.392 µM (active)	0.023 µM (active)	0.0659 µM (active)	0.168 µM (active)	0.0914 µM (active)	0.0432 µM (active)	0.229 µM (active)	0.131 µM (active)	0.0331 µM (active)	0.158 µM (active)	0.0349 µM (active)	0.0312 µM (active)	0.187 µM (active)	0.757 µM (active)	0.249 µM (active)	0.0538 µM (active)
O=C(O)CCc1nc2cc3ccccc3cc2[nH]c1=O	> 100 µM (inactive)	> 100 µM (inactive)	> 100 µM (inactive)	> 100 µM (inactive)	> 100 µM (inactive)	> 100 µM (inactive)	> 100 µM (inactive)	> 100 µM (inactive)	> 100 µM (inactive)	> 100 µM (inactive)	> 100 µM (inactive)	> 100 µM (inactive)	> 100 µM (inactive)	> 100 µM (inactive)		> 100 µM (inactive)	> 100 µM (inactive)	> 100 µM (inactive)	> 100 µM (inactive)
C(=C/c1ccc2nc(-c3ccc(/C=C/C=N/NC4=NCCCN4)cc3)cn2c1)/C=N/NC1=NCCCN1	46.7 µM (inactive)	35.7 µM (inactive)	> 100 µM (inactive)	18.8 µM (inactive)	45.4 µM (inactive)	> 100 µM (inactive)	4.39 µM (inactive)	15.2 µM (inactive)	26.1 µM (inactive)	14.8 µM (inactive)	13.3 µM (inactive)	9.64 µM (inactive)	> 100 µM (inactive)	20.3 µM (inactive)	0.822 µM (active)	23.8 µM (inactive)	> 100 µM (inactive)	40.9 µM (inactive)	16.1 µM (inactive)
O=C1c2c(ccc3c2CCCC3)CC12Cc1ccccc1C2	7.73 µM (inactive)	10.8 µM (inactive)	15.1 µM (inactive)	20 µM (inactive)	19.1 µM (inactive)	12.7 µM (inactive)	11.8 µM (inactive)	18.1 µM (inactive)	9.38 µM (inactive)	9.53 µM (inactive)	4.93 µM (inactive)	12.8 µM (inactive)	9.93 µM (inactive)	22.9 µM (inactive)	4.35 µM (inactive)	11 µM (inactive)	14.4 µM (inactive)	17.9 µM (inactive)	27.2 µM (inactive)
O=C1CSC2=NC3=C(COC/C3=C\c3ccc(F)cc3)C(c3ccc(F)cc3)N12 (stereo unspecified)	71 µM (inactive)	25.8 µM (inactive)	42.8 µM (inactive)	83.8 µM (inactive)	48.6 µM (inactive)	93.5 µM (inactive)	34.4 µM (inactive)	> 100 µM (inactive)	65.2 µM (inactive)	> 100 µM (inactive)	38.1 µM (inactive)	28.2 µM (inactive)	49.7 µM (inactive)	34.8 µM (inactive)	14.9 µM (inactive)	59.8 µM (inactive)		58.5 µM (inactive)	63.7 µM (inactive)
CC[C@@H](/C=C\CCC1(C[C@H](O)CCC=C(C)C)OCCO1)O[Si](C(C)C)(C(C)C)C(C)C	18.3 µM (inactive)	29 µM (inactive)	19.8 µM (inactive)	28.8 µM (inactive)	16.4 µM (inactive)	28.5 µM (inactive)	20 µM (inactive)	17.3 µM (inactive)	35 µM (inactive)	19.6 µM (inactive)	21.9 µM (inactive)	20.2 µM (inactive)	19 µM (inactive)	29.8 µM (inactive)	18.4 µM (inactive)	17.3 µM (inactive)	26.7 µM (inactive)	19.1 µM (inactive)	17.3 µM (inactive)
N#Cc1nc(C(CO)N(Cc2ccccc2)C(=O)O)oc1N (stereo unspecified)	> 100 µM (inactive)		> 100 µM (inactive)	> 100 µM (inactive)	> 100 µM (inactive)	> 100 µM (inactive)	> 100 µM (inactive)	> 100 µM (inactive)	> 100 µM (inactive)	> 100 µM (inactive)	> 100 µM (inactive)	12.4 µM (inactive)	> 100 µM (inactive)	> 100 µM (inactive)	> 100 µM (inactive)	> 100 µM (inactive)	> 100 µM (inactive)	> 100 µM (inactive)	> 100 µM (inactive)
Nc1c2c(nc3ccccc13)-c1ccccc1NCCC2	36.6 µM (inactive)	26.4 µM (inactive)	16.8 µM (inactive)	38.3 µM (inactive)	13.9 µM (inactive)	13.9 µM (inactive)	23.4 µM (inactive)	19.7 µM (inactive)	22 µM (inactive)	25.4 µM (inactive)	15.3 µM (inactive)	26.9 µM (inactive)	78.2 µM (inactive)	20.4 µM (inactive)	20.2 µM (inactive)	16.1 µM (inactive)	18.2 µM (inactive)	26.1 µM (inactive)	32.2 µM (inactive)
